The numbers were not newly measured in patent publication US4305927A, “Method for the management of intraocular pressure” (ALZA Corporation, priority 1980, dated 1981), which cites them from elsewhere.

The series deals with carbonic anhydrase.

With `CC(=O)Nc1nnc(S(N)(=O)=O)s1` [acetazolamide, 5-acetamido-1,3,4-thiadiazole-2-sulfonamide], the “action on carbonic anhydrase” value is on record as “enzyme inhibitor that acts on carbonic anhydrase”.
